From patent US4308278A, “Anorexigenic 4-[(3,4-dialkoxyphenyl)alkyl]-2-imidazolidinone derivatives” (Gyogyszerkutato Intezet, priority 1978, dated 1981)
Where a name gives a salt, the structure may show the parent alone.

Experiments:
CFY rats [1] = test: anorexigenic effect in starved CFY rats (feed consumption / body weight); assay type: in vivo, rat; conditions: for ED50: Rattus norvegicus, rats, starved 24 h, dose halving food consumption or body weight gain vs control, read-out: ED50 orally in rats; for ED50 / Therapeutic ratio: oral; for Therapeutic ratio: LD50 and ED50 in rats
Method: For studying the anorexigenic effect the following method was used. CFY rats were starved for 24 hours, then the substance was orally administered, and half an hour later the animals were allowed to feed ad libitum during 5 hours when the feed consumption was measured. The change in the body weight of animals and the amount of the consumed solid, granulated food or sugar milk or peeled potato, respectively, were determined.
*ED50 is the oral dose after administration of which, following a
period of 24 hours of starvation, the rats consume the half amount of foo
as compared to control, or the oral dose after the administration of whic
the body weight gain is a half of that of control.

rats = conditions: oral, literature value (footnotes 2, 3); cited from earlier work
mice = conditions: oral, literature value (footnotes 1, 2, 5); cited from earlier work
acute toxicity in mice = conditions: mouse, in vivo
CFY rats [2] = conditions: oral, literature value (footnotes 4, 5); cited from earlier work
[3] = acute oral toxicity in rats; conditions: rat, in vivo

| Compound | ED50 (CFY rats [1]) | Therapeutic ratio (CFY rats [1]) | Acute LD50 orally in rats (rats) | Acute LD50 orally in mice (mice) | LD50 (acute toxicity in mice; ip) | ED50 orally in rats (CFY rats [2]) | LD50 [3] | therapeutic ratio (comparison in words) (CFY rats [1]; compared with anorexigenic drugs introduced so far) | anorexigenic effect (CFY rats [1]; in words) | LD50 (acute toxicity in mice; po) |
| --- | --- | --- | --- | --- | --- | --- | --- | --- | --- | --- |
| CCNC(C)Cc1cccc(C(F)(F)F)c1 (racemic) [Fenfluramine, DL-N-ethyl-α-methyl-3-trifluoromethylbenzeneethanamine hydrochloride] | 7.5 mg/kg | 20.3 | 138 mg/kg | 170 to 290 mg/kg | 100 mg/kg | – | – | – | – | – |
| CC(C)(N)Cc1ccc(Cl)cc1.Cl [Chlorphentermine, α,α-dimethyl-4-chlorobenzeneethanamine hydrochloride] | – | 30.0 | – | 250 mg/kg | – | 12.5 mg/kg | 375 mg/kg | – | – | – |
| CC(N)Cc1ccccc1 [D-Amphetamine, D-benzeneethanamine sulphate] | 5 mg/kg | 7.6 | 38 mg/kg | 60 mg/kg | – | – | – | – | – | – |
| COc1ccc(CC2CNC(=O)N2)cc1OC1CCCC1 (stereo not drawn) [Ia, 4-[(3-cyclopentyloxy-4-methoxyphenyl)methyl]-2-imidazolidinone] | 10.5 mg/kg | 72.5 | – | – | 680 mg/kg | – | 760 mg/kg | more favourable than that of the best anorexigenic drugs introduced so far | much more intense than that of the anorexigenic drugs introduced so far | 2050 mg/kg |
| OC1(c2ccc(Cl)cc2)c2ccccc2C2=NCCN21 (stereo not drawn) [Mazindol, 5-(4-chlorophenyl)-2,5-dihydro-3H-imidazo[2,1-a]isoindol-5-ol] | – | 9.7 | – | – | – | 25.8 mg/kg | 250 mg/kg | – | – | 106 mg/kg |
